Where a name gives a salt, the structure may show the parent alone.
Columns and labels:
[1] = target: WVpro (West Nile virus protease) (West Nile virus, UniProt Q9Q6P4); test: WVpro enzyme inhibition assay; assay type: biochemical
[2] = system: ZIKV-FLR; test: Cellular anti-ZIKV activity in U87 cells; assay type: cell-based, Zika virus; details: for EC68 against ZIKV: in cells, values printed in nM in the text
[3] = target: DV2pro (protease of dengue serotype-2) (Dengue virus type 2, UniProt P29990); test: DV2pro enzyme inhibition assay; assay type: biochemical, dengue virus serotype-2; details: read-out: IC50 against DV2pro; standard errors <30%
Chain of DV2pro (protease of dengue serotype-2) (P29990 1476-1645): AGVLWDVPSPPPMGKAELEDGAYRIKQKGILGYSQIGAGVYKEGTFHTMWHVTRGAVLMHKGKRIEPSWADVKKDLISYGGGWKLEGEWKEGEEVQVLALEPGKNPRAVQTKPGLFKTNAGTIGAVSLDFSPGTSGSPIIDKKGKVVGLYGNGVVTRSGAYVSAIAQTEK
Chain of DV2pro (protease of dengue serotype-2) (P29990 1394-1440): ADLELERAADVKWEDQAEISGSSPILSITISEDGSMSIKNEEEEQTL

[4] = system: 5 selected human proteases; details: at 10 μM; cited from earlier work
[5] = system: ZIKV; details: cited from earlier work
[6] = system: ZIKV strain HN16; details: comparable activities; cited from earlier work
[7] = system: dengue virus (serotype-2, strain K0049); details: comparable activities; cited from earlier work

Chain of WVpro (West Nile virus protease) (Q9Q6P4 1424-1470): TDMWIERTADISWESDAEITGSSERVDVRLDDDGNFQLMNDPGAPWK
Chain of WVpro (West Nile virus protease) (Q9Q6P4 1506-1675): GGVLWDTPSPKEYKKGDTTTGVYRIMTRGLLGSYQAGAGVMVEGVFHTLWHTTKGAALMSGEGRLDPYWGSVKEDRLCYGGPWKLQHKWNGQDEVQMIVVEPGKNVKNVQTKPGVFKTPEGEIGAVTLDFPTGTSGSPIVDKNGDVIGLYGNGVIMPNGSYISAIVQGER

## Brc1ccc(-c2ncc(OCC3CCNCC3)nc2-c2ccc(Br)cc2)cc1 [Compound 1, 2,3-bis(4-Bromophenyl)-5-(piperidin-4-ylmethoxy)pyrazine hydrochloride]
[1]
  IC50: > 50 µM

## NCc1ccc(-c2ncc(OCC3CCNCC3)nc2-c2ccc(Oc3ccccc3)cc2)cc1 [Compound 44, (4-(3-(4-Phenoxyphenyl)-5-(piperidin-4-ylmethoxy)pyrazin-2-yl)phenyl)methanamine hydrochloride]
[1]
  IC50: > 50 µM

## NCc1ccc(-c2ncc(OCC3CCNCC3)nc2-c2ccc(C3CCOCC3)cc2)cc1 [Compound 103, (4-(5-(Piperidin-4-ylmethoxy)-3-(4-(tetraHydro-2H-pyran-4-yl)phenyl)pyrazin-2-yl)phenyl)methanamine hydrochloride]
[2]
  EC68 against ZIKV: 300 to 600 nM

## NCc1ccc(-c2cc(CNCC3CCNCC3)sc2-c2ccc(CN)cc2)cc1 [Compound 20, ((5-(((Piperidin-4-ylmethyl)amino)methyl)thiophene-2,3-diyl)bis(4,1-phenylene))dimethanamine Hydrochloride]
[3]
  IC50: > 50 µM
[1]
  IC50: > 50 µM

## NCc1ccc(-c2ncc(OCC3CCNCC3)nc2-c2ccc(-c3cn[nH]c3)cc2)cc1 [Compound 46]
[1]
  IC50: 0.12 µM

## NCc1ccc(-c2ncc(OCC3CCNCC3)nc2-c2ccc(O)cc2)cc1 [Compound 50, 4-(3-(4-(Aminomethyl)phenyl)-6-(piperidin-4-ylmethoxy)pyrazin-2-yl)phenol hydrochloride]
[2]; at 10 μM
  Inhibition of ZIKV replication: did not inhibit ZIKV replication

## NCc1ccc(-c2ncc(OCC3CCNCC3)nc2-c2ccc(-c3ccncc3)cc2)cc1 [Compound 45, (4-(5-(Piperidin-4-ylmethoxy)-3-(4-(pyridin-4-yl)phenyl)pyrazin-2-yl)phenyl)methanamine hydrochloride]
[1]
  IC50: > 50 µM

## NCc1ccc(-c2ncc(OCC3CCNCC3)nc2-c2ccc(-c3ccoc3)cc2)cc1 [Compound 47, (4-(3-(4-(Furan-3-yl)phenyl)-5-(piperidin-4-ylmethoxy)pyrazin-2-yl)phenyl)methanamine hydrochloride]
[2]; Zika virus, U-87 MG, 48 h, read-out: ZIKV-FLR EC68
  EC68: 0.3 to 0.6 µM
[2]
  EC68 against ZIKV: 300 to 600 nM
[4]
  Inhibition of 5 selected human proteases: did not inhibit
[5]; mouse model of ZIKV infection
  In vivo antiviral activity: strong in vivo antiviral activity
[5]; mouse, 30 mg/kg for 3 days
  Survival of the experimental mice: significantly prolonged survivals
[6]
  Inhibition of replication of ZIKV strain HN16: potently inhibit replication
[7]
  Inhibition of replication of dengue virus (serotype-2, strain K0049): potently inhibit replication

— publication PMC8052950 (Journal of medicinal chemistry, 2021)
